Laboratory results from patent publication US20250135042A1, “Perfluorocarbon-Containing Contrast Agent for Use in MRI Imaging of Body Cavities” (University of Pittsburgh - Of the Commonwealth System of …, priority 2023, published 2025).

Legend:
[1] = Stokes-Einstein radius; assay type: physicochemical
[2] = 1H relaxivity of serial two-fold dilutions in tubes, from T1 weighted images; assay type: physicochemical; conditions: 7 Tesla, 37° C.
Procedure: FIGS. 2A and 2B: Graphical plots and T1 weighted images of individual tubes containing serial two-fold dilutions of Gadobutrol without ≥10% w/v PFC emulsion (FIG. 2A) or with ≥10% w/v PFC emulsion (FIG. 2B) display that ≥10% PFC emulsion diminishes the ^1H relaxivity of Gadobutrol from 3.95 L/mmol/s (FIG. 2A) to 2.05 L/mmol/s (FIG. 2B) at 7 Tesla scanner. T1 relaxation rate of water protons (R1=1/T1) was calculated from the slope of the line plotted by computing T1 relaxation time from T1 weighted images acquired at identical magnetic field strength of 7 Tesla at 37° C.
While gadolinium chelates are characterized by longitudinal and transverse relaxivity, denoted r1 and r2, respectively, (sensitivity to improve image contrast) gadolinium chelates are generally referred to as T1 agents owing to their larger effect on tissue T1 than on T2 for positive image contrast in T1-weighted images.

In the case of `O=C([O-])CN1CCN(CC(=O)[O-])CCN([C@H](CO)[C@H](O)CO)CCN(CC(=O)[O-])CC1.[Gd+3]` (racemic) [Gadobutrol, gadobutrol], the “Stokes-Einstein radius (median for the emulsion particles)” value [1] was 0.4 nm, the “1H relaxivity of Gadobutrol” value ([2]; with ≥10% w/v PFC emulsion) was 2.05 L/mmol/s and the “1H relaxivity of Gadobutrol” value ([2]; without ≥10% w/v PFC emulsion) was 3.95 L/mmol/s.
